In US20260317320A1, “C5AR1 ANTAGONISTS AND USES THEREOF” (Vanqua Bio, Inc., priority 2022, published 2026):
Where two headings read alike, the source gives them in different places.

How the values were obtained:
[1] = biological target: T1, complement C5a receptor 1 (C5aR1) (Homo sapiens, UniProt P21730); experiment: β-arrestin recruitment via C5aR1 activation in live CHO-K1 cells (PathHunter), antagonist mode; assay type: cell-based
T1 construct: β-galactosidase fragment (PathHunter enzyme complementation); host or cells: CHO-K1 (PathHunter CHO-K1 C5aR1 β-arrestin cell line)
T1 sequence (P21730 1-350): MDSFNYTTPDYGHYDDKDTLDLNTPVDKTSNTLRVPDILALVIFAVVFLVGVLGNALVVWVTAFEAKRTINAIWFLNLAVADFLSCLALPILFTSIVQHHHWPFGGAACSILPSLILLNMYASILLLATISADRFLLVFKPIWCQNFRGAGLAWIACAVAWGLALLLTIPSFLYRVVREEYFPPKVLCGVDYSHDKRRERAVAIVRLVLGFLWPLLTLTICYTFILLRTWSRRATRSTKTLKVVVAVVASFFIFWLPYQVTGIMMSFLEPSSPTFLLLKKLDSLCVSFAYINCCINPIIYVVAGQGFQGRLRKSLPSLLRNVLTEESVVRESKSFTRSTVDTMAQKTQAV
Outline: (§1)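 Live CHO-K1 cells carry two galactosidase enzyme fragments, one fused to β-arrestin and one to C5aR1, so that β-arrestin recruitment restores enzyme activity. Agonist mode tests compounds alone. Antagonist mode tests them against recombinant hC5a at EC90, and IC50 values are reported in binned ranges.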

[2] = biological target: T1, complement C5a receptor 1 (C5aR1); experiment: β-arrestin recruitment via C5aR1 activation in live CHO-K1 cells (PathHunter), agonist mode; assay type: cell-based
Outline: as §1

[3] = antagonist mode, recombinant hC5a (EC90) as competing natural agonist, live CHO-K1 cells, read-out: [Antagonist] B-arrestin2 recruitment: Average IC50

| SMILES | IC50 [1, 3] | [Agonist] B-arrestin2 recruitment: Average EC50 (nM) [2] | [Agonist] B-arrestin2 recruitment: Average EC50 (nM) ([2]; at 10 μM) | IC50 [1] |
| --- | --- | --- | --- | --- |
| Cc1cnc2cc(C3CCN(c4cc(F)cnc4C)CC3)c(=O)n(Cc3ncccc3C(F)(F)F)c2n1 [compound 56, 7-(1-(5-fluoro-2-methylpyridin-3-yl)piperidin-4-yl)-3-methyl-5-((3-(trifluoromethyl)-pyridin-2-yl)methyl)pyrido[2,3-b]pyrazin-6(5H)-one] | 5 to 100 µM | Non-Active |  |  |
| Cc1ccc2cc([C@H]3CC[C@H](c4c(C)cccc4F)CC3)c(=O)n(Cc3nccnc3C)c2n1 [compound 206, 3-((1r,4r)-4-(2-fluoro-6-methylphenyl)cyclohexyl)-7-methyl-1-((3-methylpyrazin-2-yl)methyl)-1,8-naphthyridin-2(1H)-one] | 0.5 to 5 µM |  | Non-Active at 10 μM |  |
| Cc1ccc2cc([C@H]3CC[C@H](c4c(C)cccc4F)CC3)c(=O)n(Cc3ncccc3CC(F)(F)F)c2n1 [compound 239, 3-((1r,4r)-4-(2-fluoro-6-methylphenyl)cyclohexyl)-7-methyl-1-((3-(2,2,2-trifluoroethyl)pyridin-2-yl)methyl)-1,8-naphthyridin-2(1H)-one] | < 0.5 µM | Non-Active |  |  |
| Cc1cccc(F)c1N1CCC(c2nc3nccnc3n(Cc3ccccc3C(F)(F)F)c2=O)CC1 [compound 39, 3-(1-(2-Fluoro-6-methylphenyl)piperidin-4-yl)-1-(2-(trifluoromethyl)benzyl)pyrazino[2,3-b]pyrazin-2(1H)-one] |  | Non-Active |  | 0.5 to 5 µM |
| Cc1cccc(F)c1[C@@H]1CC[C@@H](c2cc3nccnc3n(Cc3ncccc3C(F)(F)F)c2=O)C1 [200D, 7-((1R,3R)-3-(2-Fluoro-6-methylphenyl)cyclopentyl)-5-((3-(trifluoromethyl)pyridin-2-yl)methyl)pyrido[2,3-b]pyrazin-6(5H)-one] | < 0.5 µM |  | Non-Active at 10 μM |  |
| Cc1cnc2cc([C@H]3CC[C@@H](c4c(C)ccnc4F)CC3)c(=O)n(Cc3ncccc3C(F)(F)F)c2n1 [147A, 7-((1s,4s)-4-(2-Fluoro-4-methylpyridin-3-yl)cyclohexyl)-3-methyl-5-((3-(trifluoromethyl)pyridin-2-yl)methyl)pyrido[2,3-b]pyrazin-6(5H)-one] | < 0.5 µM |  | Non-Active at 10 μM |  |
| Cc1ccc2cc([C@H]3C[C@H](c4c(C)cccc4F)C3)c(=O)n(Cc3ncccc3C(F)(F)F)c2n1 [243A, 3-((1r,3r)-3-(2-Fluoro-6-methylphenyl)cyclobutyl)-7-methyl-1-((3-(trifluoromethyl)pyridin-2-yl)methyl)-1,8-naphthyridin-2(1H)-one] | < 0.5 µM | Non-Active |  |  |
| Cc1ccc2cc([C@H]3CC[C@H](c4c(C)cccc4F)CC3)c(=O)n(Cc3ncccc3C(F)F)c2n1 [compound 193, 1-((3-(Difluoromethyl)pyridin-2-yl)methyl)-3-((1r,4r)-4-(2-fluoro-6-methylphenyl)cyclohexyl)-7-methyl-1,8-naphthyridin-2(1H)-one] | < 0.5 µM | Non-Active |  |  |
| Cc1cnc(F)cc1N1CCC(c2cc3nccnc3n(Cc3ccccc3C(F)(F)F)c2=O)CC1 [compound 26, 7-(1-(2-fluoro-5-methylpyridin-4-yl)piperidin-4-yl)-5-(2-(trifluoromethyl)benzyl)pyrido-[2,3-b]pyrazin-6(5H)-one] | 0.5 to 5 µM | Non-Active |  |  |
| Cc1cnc2cc([C@H]3CC[C@@H](c4c(C)ccnc4F)CC3)c(=O)n(Cc3nccnc3C)c2n1 [135A, 7-((1s,4s)-4-(2-Fluoro-4-methylpyridin-3-yl)cyclohexyl)-3-methyl-5-((3-methylpyrazin-2-yl)methyl)pyrido[2,3-b]pyrazin-6(5H)-one] | 5 to 100 µM |  | Non-Active at 10 μM |  |
| Cc1ccc2cc([C@H]3CC[C@H](c4c(C)cccc4F)CC3)c(=O)n(Cc3ccccc3C(F)(F)F)c2n1 [compound 225, 3-((1r,4r)-4-(2-Fluoro-6-methylphenyl)cyclohexyl)-7-methyl-1-(2-(trifluoromethyl)benzyl)-1,8-naphthyridin-2(1H)-one] | < 0.5 µM |  | Non-Active at 10 μM |  |
| Cc1nccnc1Cn1c(=O)c(C2CCN(c3c(F)cccc3C(F)(F)F)CC2)cc2nccnc21 [compound 126, 7-(1-(2-Fluoro-6-(trifluoromethyl)phenyl)piperidin-4-yl)-5-((3-methylpyrazin-2-yl)methyl)pyrido[2,3-b]pyrazin-6(5H)-one] | 0.5 to 5 µM | Non-Active |  |  |
| Cc1ccc2nc(C3CCN(c4c(C)cccc4F)CC3)c(=O)n(Cc3nccnc3C(F)(F)F)c2c1 [144A, 3-(1-(2-Fluoro-6-methylphenyl)piperidin-4-yl)-7-methyl-1-((3-(trifluoromethyl)pyrazin-2-yl)methyl)quinoxalin-2(1H)-one] | > 100 µM |  | Non-Active at 10 μM |  |
| COc1nccnc1Cn1c(=O)c(N2CCN(c3c(C)cccc3F)CC2)cc2ncc(C)nc21 [compound 125, 7-(4-(2-Fluoro-6-methylphenyl)piperazin-1-yl)-5-((3-methoxypyrazin-2-yl)methyl)-3-methylpyrido[2,3-b]pyrazin-6(5H)-one] | 0.5 to 5 µM | Non-Active |  |  |
| Cc1cccc(F)c1N1CCC(c2cc3nccnc3n(Cc3cccnc3C(F)(F)F)c2=O)CC1 [compound 13, 7-(1-(2-Fluoro-6-methylphenyl)piperidin-4-yl)-5-((2-(trifluoromethyl)pyridin-3-yl)methyl)pyrido[2,3-b]pyrazin-6(5H)-one] | < 0.5 µM | Non-Active |  |  |
| Cc1cnc2cc([C@H]3CC[C@H](c4c(F)ccc5cnn(C)c54)CC3)c(=O)n(Cc3ncccc3C(F)(F)F)c2n1 [compound 217, 3-Methyl-7-[(1r,4r)-4-(6-fluoro-1-methylindazol-7-yl)cyclohexyl]-5-{[3-(trifluoromethyl)pyridin-2-yl]methyl}pyrido[2,3-b]pyrazin-6-one] | 5 to 100 µM |  | Non-Active at 10 μM |  |
| Cc1cnc2cc([C@H]3CC[C@H](c4c(C)ccnc4F)CC3)c(=O)n(Cc3nccnc3C)c2n1 [135B, 7-((1r,4r)-4-(2-Fluoro-4-methylpyridin-3-yl)cyclohexyl)-3-methyl-5-((3-methylpyrazin-2-yl)methyl)pyrido[2,3-b]pyrazin-6(5H)-one] | 5 to 100 µM |  | Non-Active at 10 μM |  |
| Cc1ccc2cc([C@H]3CC[C@H](c4c(C)cccc4F)CC3)c(=O)n(Cc3ncccc3C(F)(F)F)c2n1 [compound 183, 3-((1r,4r)-4-(2-Fluoro-6-methylphenyl)cyclohexyl)-7-methyl-1-((3-(trifluoromethyl)pyridin-2-yl)methyl)-1,8-naphthyridin-2(1H)-one] | < 0.5 µM |  | Non-Active at 10 μM |  |
| Cc1cnc2cc(C3CCN(c4nncs4)CC3)c(=O)n(Cc3ncccc3C(F)(F)F)c2n1 [compound 132, 7-(1-(1,3,4-Thiadiazol-2-yl)piperidin-4-yl)-3-methyl-5-((3-(trifluoromethyl)pyridin-2-yl)methyl)pyrido[2,3-b]pyrazin-6(5H)-one] | > 100 µM | Non-Active |  |  |
| Cc1cccc(F)c1[C@H]1CC[C@H](c2cc3ncc(C(F)F)nc3n(Cc3ncccc3C(F)(F)F)c2=O)CC1 [compound 240, 3-(Difluoromethyl)-7-((1r,4r)-4-(2-fluoro-6-methylphenyl)cyclohexyl)-5-((3-(trifluoromethyl)pyridin-2-yl)methyl)pyrido[2,3-b]pyrazin-6(5H)-one] | < 0.5 µM | Non-Active |  |  |
| Cc1cccc(F)c1N1CCC(c2nc3ccccc3n(Cc3ncccc3C(F)(F)F)c2=O)CC1 [compound 139, 3-(1-(2-Fluoro-6-methylphenyl)piperidin-4-yl)-1-((3-(trifluoromethyl)pyridin-2-yl)methyl)quinoxalin-2(1H)-one] | > 100 µM |  | Non-Active at 10 μM |  |
| Cc1cc(F)ncc1N1CCC(c2cc3nccnc3n(Cc3ccccc3C(F)(F)F)c2=O)CC1 [compound 32, 7-(1-(6-Fluoro-4-methylpyridin-3-yl)piperidin-4-yl)-5-(2-(trifluoromethyl)benzyl)pyrido-[2,3-b]pyrazin-6(5H)-one] | < 0.5 µM | Non-Active |  |  |
| FC(F)(F)c1cccnc1CN1CC(C2CCN(c3ncccc3Cl)CC2)=Cc2nccnc21 [compound 170, 7-(1-(3-Chloropyridin-2-yl)piperidin-4-yl)-5-((3-(trifluoromethyl)pyridin-2-yl)methyl)-5,6-dihydropyrido[2,3-b]pyrazine] | < 0.5 µM |  | Non-Active at 10 μM |  |
| COc1nccnc1N1CCC(c2cc3nccnc3n(Cc3ccccc3C(F)(F)F)c2=O)CC1 [compound 9, 7-(1-(3-Methoxypyrazin-2-yl)piperidin-4-yl)-5-(2-(trifluoromethyl)benzyl)pyrido[2,3-b]pyrazin-6(5H)-one] | 5 to 100 µM | Non-Active |  |  |
